In patent US8962641B2, “Pyrimidine-substituted pyrrolidine derivatives, pharmaceutical compositions and uses thereof” (Boehringer Ingelheim International GmbH, priority 2013, dated 2015):

Each compound was assayed against human ACC2 (Homo sapiens (Human), UniProt O00763) (assay: ACC2 assay (spectrophotometric 384 well assay, NADH-linked kinetic method)). Conditions: hACC2 construct lacking 128 N-terminal amino acids; coupled lactate dehydrogenase/pyruvate kinase reaction, 340 nm, 25° C.
Assay type: biochemical
Description: Spectrophotometric 384 Well Assay
Malonyl CoA formation by acetyl CoA carboxylases is stoichometrically linked to the consumption of ATP. ACC2 activity is measured in a NADH-linked kinetic method measuring ADP generated during the ACC reaction using a coupled lactate dehydrogenase/pyruvate kinase reaction.
The protein is then expressed in insect cells using a baculoviral expression system. Protein purification is performed by anion exchange.
All compounds are dissolved in dimethyl sulfoxide (DMSO) to a concentration of 10 mM.
The enzymatic reaction is then started by addition of a mixture of NADH, acetyl Coenzyme A (both 200 μM f.c.) and ATP (500 uM f.c.). The decrease of the optical density (slope S) is then determined at 25° C. at a wavelength of 340 nm over 15 minutes in a spectrophotometric reader.
Each assay microtiter plate contains wells with vehicle instead of compound as controls for the non-inhibited enzyme (100% CTL; ‘HIGH’) and wells without acetyl-CoA as controls for non-specific NADH degradation (0% CTL; ‘LOW’).

Sequence of human ACC2 (O00763 129-2458): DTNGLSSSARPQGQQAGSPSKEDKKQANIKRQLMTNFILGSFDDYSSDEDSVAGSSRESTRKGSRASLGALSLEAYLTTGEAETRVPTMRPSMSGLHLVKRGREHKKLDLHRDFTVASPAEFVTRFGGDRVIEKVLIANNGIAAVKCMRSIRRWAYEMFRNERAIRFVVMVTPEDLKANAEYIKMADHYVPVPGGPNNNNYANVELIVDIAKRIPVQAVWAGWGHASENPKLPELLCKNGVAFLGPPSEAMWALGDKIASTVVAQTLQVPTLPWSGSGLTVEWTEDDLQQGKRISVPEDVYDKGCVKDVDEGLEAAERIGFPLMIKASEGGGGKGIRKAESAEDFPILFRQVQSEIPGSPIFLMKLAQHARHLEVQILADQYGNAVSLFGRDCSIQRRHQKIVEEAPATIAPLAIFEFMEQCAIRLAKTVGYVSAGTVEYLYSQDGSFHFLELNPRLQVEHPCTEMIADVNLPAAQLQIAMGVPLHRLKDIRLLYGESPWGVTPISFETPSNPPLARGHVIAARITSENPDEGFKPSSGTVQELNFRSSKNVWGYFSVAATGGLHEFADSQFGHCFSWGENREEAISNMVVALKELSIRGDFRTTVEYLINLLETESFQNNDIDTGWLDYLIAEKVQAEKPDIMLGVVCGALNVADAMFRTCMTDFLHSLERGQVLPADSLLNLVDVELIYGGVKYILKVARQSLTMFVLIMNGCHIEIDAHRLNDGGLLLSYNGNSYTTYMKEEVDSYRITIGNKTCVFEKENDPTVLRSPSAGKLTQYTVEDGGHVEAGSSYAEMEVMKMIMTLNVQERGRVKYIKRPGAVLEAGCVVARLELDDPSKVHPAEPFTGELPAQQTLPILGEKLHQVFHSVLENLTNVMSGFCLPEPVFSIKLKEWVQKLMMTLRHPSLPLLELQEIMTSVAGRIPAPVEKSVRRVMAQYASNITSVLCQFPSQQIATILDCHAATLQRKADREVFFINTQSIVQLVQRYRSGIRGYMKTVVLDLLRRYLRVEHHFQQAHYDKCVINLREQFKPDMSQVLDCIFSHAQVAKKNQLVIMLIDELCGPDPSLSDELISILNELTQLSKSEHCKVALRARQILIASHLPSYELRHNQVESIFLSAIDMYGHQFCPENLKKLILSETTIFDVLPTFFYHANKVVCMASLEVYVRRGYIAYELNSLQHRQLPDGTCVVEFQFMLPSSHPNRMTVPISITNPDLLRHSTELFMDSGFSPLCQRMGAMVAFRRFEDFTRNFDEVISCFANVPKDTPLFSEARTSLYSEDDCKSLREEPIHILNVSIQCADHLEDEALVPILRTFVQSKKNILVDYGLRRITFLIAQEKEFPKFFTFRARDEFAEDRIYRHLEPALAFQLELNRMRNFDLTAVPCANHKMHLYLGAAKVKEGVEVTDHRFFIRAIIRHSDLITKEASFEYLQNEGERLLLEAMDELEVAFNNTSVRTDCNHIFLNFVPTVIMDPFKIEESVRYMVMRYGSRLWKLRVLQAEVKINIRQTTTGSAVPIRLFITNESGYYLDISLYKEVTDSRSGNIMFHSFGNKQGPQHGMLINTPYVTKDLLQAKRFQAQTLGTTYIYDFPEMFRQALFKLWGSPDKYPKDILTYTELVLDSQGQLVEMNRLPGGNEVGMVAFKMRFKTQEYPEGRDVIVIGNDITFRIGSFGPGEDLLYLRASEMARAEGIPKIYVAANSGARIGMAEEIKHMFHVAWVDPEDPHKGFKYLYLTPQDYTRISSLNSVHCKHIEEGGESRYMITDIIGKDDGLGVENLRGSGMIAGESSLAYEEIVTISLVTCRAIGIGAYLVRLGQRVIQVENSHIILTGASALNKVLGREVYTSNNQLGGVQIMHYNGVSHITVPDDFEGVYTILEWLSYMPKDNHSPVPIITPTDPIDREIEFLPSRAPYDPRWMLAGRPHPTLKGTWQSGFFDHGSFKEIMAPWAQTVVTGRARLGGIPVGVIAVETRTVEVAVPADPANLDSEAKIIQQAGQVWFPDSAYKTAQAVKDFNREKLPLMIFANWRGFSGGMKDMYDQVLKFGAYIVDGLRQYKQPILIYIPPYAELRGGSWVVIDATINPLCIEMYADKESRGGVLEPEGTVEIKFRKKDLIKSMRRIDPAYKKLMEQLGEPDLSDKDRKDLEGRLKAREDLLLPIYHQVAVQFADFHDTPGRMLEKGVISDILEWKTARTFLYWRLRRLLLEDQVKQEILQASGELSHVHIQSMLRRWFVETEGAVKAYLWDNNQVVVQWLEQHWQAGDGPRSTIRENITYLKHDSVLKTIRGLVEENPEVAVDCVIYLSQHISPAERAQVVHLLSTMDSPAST

IC50 | SMILES
155 nM | C[C@H](NC(=O)N(C)C)c1ccc(O[C@@H]2CCN(c3ncnc(OCC(C)(F)F)c3F)C2)cc1 [Example 3.19]
576 nM | CCNC(=O)N[C@@H](C)c1ccc(O[C@@H]2CCN(c3nc(N4CCOCC4)ncc3F)C2)cc1 [Example 3.20]
65 nM | COC(=O)N[C@@H](C)c1ccc(O[C@@H]2CCN(c3ccnc(N(C)CC(F)F)n3)C2)cc1 [Example 4.1, Methyl (S)-1-(4-((R)-1-(2-((2,2-difluoroethyl)(methyl)amino)pyrimidin-4-yl)pyrrolidin-3-yloxy)phenyl)ethylcarbamate]
244 nM | COC(=O)N[C@@H](C)c1ccc(OC2CCN(c3ccnc(N4CCOCC4)n3)C2)cc1 (some centres unmarked) [Example 4.2]
494 nM | CCOC(=O)N[C@@H](C)c1ccc(OC2CCN(c3ccnc(N4CCOCC4)n3)C2)cc1 (some centres unmarked) [Example 4.3]
75 nM | CCN(C)c1nccc(N2CCC(Oc3ccc([C@H](C)NC(=O)OC)cc3)C2)n1 (some centres unmarked) [Example 4.4]
85 nM | COC(=O)N[C@@H](C)c1ccc(OC2CCN(c3ncnc(OCC4CC4)c3F)C2)cc1 (some centres unmarked) [Example 4.5]
222 nM | COC(=O)N[C@@H](C)c1ccc(OC2CCN(c3ncnc(OCC(C)(C)O)c3F)C2)cc1 (some centres unmarked) [Example 4.6]
59 nM | CCN(C)c1nccc(N2CC[C@@H](Oc3ccc([C@H](C)NC(=O)C(F)F)cc3)C2)n1 [Example 5.1, N—((S)-1-(4-((R)-1-(2-(ethyl(methyl)amino)pyrimidin-4-yl)pyrrolidin-3-yloxy)phenyl)ethyl)-2,2-difluoroacetamide]
49 nM | C[C@H](NC(=O)C(F)F)c1ccc(OC2CCN(c3ccnc(N(C)CC(F)F)n3)C2)cc1 (some centres unmarked) [Example 5.2]
65 nM | C[C@H](NC(=O)C(F)F)c1ccc(OC2CCN(c3ncnc(OCC4CC4)c3F)C2)cc1 (some centres unmarked) [Example 5.3]
110 nM | CC(=O)N[C@@H](C)c1ccc(O[C@@H]2CCN(c3ncc(OCC4CCC4)cn3)C2)cc1 [Example 6.1, N—((S)-1-(4-((R)-1-(5-(cyclobutylmethoxy)pyrimidin-2-yl)pyrrolidin-3-yloxy)phenyl)ethyl)acetamide]
1910 nM | CC(=O)N[C@@H](C)c1ccc(O[C@@H]2CCN(c3ncc(C4CC4)cn3)C2)cc1 [Example 6.4]
830 nM | CC(=O)N[C@@H](C)c1ccc(O[C@@H]2CCN(c3ncc(OC(C)C)cn3)C2)cc1 [Example 6.6]
1080 nM | CC(=O)N[C@@H](C)c1ccc(O[C@@H]2CCN(c3ncc(OCC4CC4)cn3)C2)cc1 [Example 6.7]
163 nM | CC(=O)N[C@@H](C)c1ccc(O[C@@H]2CCN(c3ncc(OCC4CC4(F)F)cn3)C2)cc1 (some centres unmarked) [Example 6.8]
654 nM | CC(=O)N[C@@H](C)c1ccc(O[C@@H]2CCN(c3ccnc(C(C)C)n3)C2)cc1 [Example 6.9]
929 nM | CC(=O)N[C@@H](C)c1ccc(O[C@@H]2CCN(c3nccc(N4CCCC4)n3)C2)cc1 [Example 6.10]
244 nM | CCN(C)c1ccnc(N2CC[C@@H](Oc3ccc([C@H](C)NC(C)=O)cc3)C2)n1 [Example 6.11]
828 nM | CCN(C)c1nc(N2CC[C@@H](Oc3ccc([C@H](C)NC(C)=O)cc3)C2)ncc1F [Example 6.12]
510 nM | CCN(CC)c1nc(N2CC[C@@H](Oc3ccc([C@H](C)NC(C)=O)cc3)C2)ncc1F [Example 6.13]
290 nM | C[C@H](NC(=O)c1cncs1)c1ccc(O[C@@H]2CCN(c3nccc(N4CCOCC4)n3)C2)cc1 [Example 6.14]

IC50 | SMILES
220 nM | C[C@H](NC(=O)c1cncs1)c1ccc(O[C@@H]2CCN(c3ncc(OCC4CC4(F)F)cn3)C2)cc1 (some centres unmarked) [Example 6.15]
153 nM | C[C@H](NC(=O)c1cncs1)c1ccc(O[C@@H]2CCN(c3ccnc(C(F)(F)F)n3)C2)cc1 [Example 6.16]
2360 nM | CC(=O)N[C@@H](C)c1ccc(O[C@@H]2CCN(c3ncc(C4CCC4)cn3)C2)cc1 [Example 6.17]
935 nM | CC(=O)N[C@@H](C)c1ccc(O[C@@H]2CCN(c3ncc(C4CCCC4)cn3)C2)cc1 [Example 6.18]
449 nM | CC(=O)N[C@@H](C)c1ccc(O[C@@H]2CCN(c3ncc(OCCC4CC4)cn3)C2)cc1 [Example 6.19]
974 nM | CC(=O)N[C@@H](C)c1ccc(O[C@@H]2CCN(c3ncc(OCC(C)C)cn3)C2)cc1 [Example 6.20]
303 nM | CC(=O)N[C@@H](C)c1ccc(O[C@@H]2CCN(c3ccnc(C(F)(F)F)n3)C2)cc1 [Example 6.21]
1350 nM | CCCN(C)c1ccnc(N2CC[C@@H](Oc3ccc([C@H](C)NC(C)=O)cc3)C2)n1 [Example 6.22]
1730 nM | CC(=O)N[C@@H](C)c1ccc(O[C@@H]2CCN(c3nccc(C(F)(F)F)n3)C2)cc1 [Example 6.23]
819 nM | CC(=O)N[C@@H](C)c1ccc(O[C@@H]2CCN(c3ncc(C(C)(C)C)cn3)C2)cc1 [Example 6.24]
714 nM | CCCc1cnc(N2CC[C@@H](Oc3ccc([C@H](C)NC(C)=O)cc3)C2)nc1 [Example 6.25]
120 nM | CC(=O)N[C@@H](C)c1ccc(O[C@@H]2CCN(c3ncc(OC[C@H]4CC4(F)F)cn3)C2)cc1 [Example 6.26]
35 nM | CC(=O)N[C@@H](C)c1ccc(O[C@@H]2CCN(c3ncnc(OCC4CC4)c3F)C2)cc1 [Example 7.1, N—((S)-1-(4-((R)-1-(6-(cyclopropylmethoxy)-5-fluoropyrimidin-4-yl)pyrrolidin-3-yloxy)phenyl)ethyl)acetamide]
649 nM | CCCOc1cc(N2CC[C@@H](Oc3ccc([C@H](C)NC(C)=O)cc3)C2)ncn1 [Example 7.2]
375 nM | CC(=O)N[C@@H](C)c1ccc(O[C@@H]2CCN(c3cc(OCC4CC4)ncn3)C2)cc1 [Example 7.3]
373 nM | CC(=O)N[C@@H](C)c1ccc(O[C@@H]2CCN(c3cc(OC4CCC4)ncn3)C2)cc1 [Example 7.4]
842 nM | CC(=O)N[C@@H](C)c1ccc(O[C@@H]2CCN(c3cc(OCC4CC4(F)F)ncn3)C2)cc1 (some centres unmarked) [Example 7.5]
1100 nM | CC(=O)N[C@@H](C)c1ccc(O[C@@H]2CCN(c3ccnc(OCC4CC4)n3)C2)cc1 [Example 7.6]
884 nM | CC(=O)N[C@@H](C)c1ccc(O[C@@H]2CCN(c3ccnc(OC4CCC4)n3)C2)cc1 [Example 7.7]
2090 nM | CCCOc1ccnc(N2CC[C@@H](Oc3ccc([C@H](C)NC(C)=O)cc3)C2)n1 [Example 7.8]
879 nM | CC(=O)N[C@@H](C)c1ccc(O[C@@H]2CCN(c3cc(OCC(F)(F)F)ncn3)C2)cc1 [Example 7.9]
368 nM | CC(=O)N[C@@H](C)c1ccc(O[C@@H]2CCN(c3nc(OC4CCC4)ncc3F)C2)cc1 [Example 7.11]

IC50 | SMILES
585 nM | CCOc1ncc(F)c(N2CC[C@@H](Oc3ccc([C@H](C)NC(C)=O)cc3)C2)n1 [Example 7.12]
780 nM | CC(=O)N[C@@H](C)c1ccc(O[C@@H]2CCN(c3nc(OCC(C)C)ncc3F)C2)cc1 [Example 7.14]
828 nM | CC(=O)N[C@@H](C)c1ccc(O[C@@H]2CCN(c3nc(OCC(F)F)ncc3F)C2)cc1 [Example 7.15]
960 nM | CC(=O)N[C@@H](C)c1ccc(O[C@@H]2CCN(c3ccnc(OCC(C)C)n3)C2)cc1 [Example 7.17]
565 nM | CC(=O)N[C@@H](C)c1ccc(O[C@@H]2CCN(c3nc(OCC4(C)CC4)ncc3F)C2)cc1 [Example 7.18]
65 nM | CCCOc1ncnc(N2CC[C@@H](Oc3ccc([C@H](C)NC(C)=O)cc3)C2)c1F [Example 7.19]
35 nM | CC(=O)N[C@@H](C)c1ccc(O[C@@H]2CCN(c3ncnc(OCC4CC4)c3Cl)C2)cc1 [Example 7.20]
45 nM | CCCOc1ncnc(N2CC[C@@H](Oc3ccc([C@H](C)NC(C)=O)cc3)C2)c1Cl [Example 7.21]
140 nM | CCOc1ncnc(N2CC[C@@H](Oc3ccc([C@H](C)NC(C)=O)cc3)C2)c1Cl [Example 7.22]
120 nM | CCCOc1ncnc(N2CC[C@@H](Oc3ccc([C@H](C)NC(C)=O)cc3)C2)c1C [Example 7.23]
394 nM | CCOc1ncnc(N2CC[C@@H](Oc3ccc([C@H](C)NC(C)=O)cc3)C2)c1C [Example 7.24]
67 nM | CC(=O)N[C@@H](C)c1ccc(O[C@@H]2CCN(c3ncnc(OCC4CC4)c3C)C2)cc1 [Example 7.25]
148 nM | CCOc1ncnc(N2CC[C@@H](Oc3ccc([C@H](C)NC(C)=O)cc3)C2)c1F [Example 7.26]
35 nM | CC(=O)N[C@@H](C)c1ccc(O[C@@H]2CCN(c3ncnc(OC4CCC4)c3F)C2)cc1 [Example 7.27]
69 nM | CC(=O)N[C@@H](C)c1ccc(O[C@@H]2CCN(c3ncnc(OCC(C)C)c3F)C2)cc1 [Example 7.28]
175 nM | CC(=O)N[C@@H](C)c1ccc(O[C@@H]2CCN(c3ncnc(OCC4(C#N)CC4)c3F)C2)cc1 [Example 7.29]
153 nM | CC(=O)N[C@@H](C)c1ccc(O[C@@H]2CCN(c3ncnc(OCC(F)F)c3F)C2)cc1 [Example 7.30]
49 nM | CC(=O)N[C@@H](C)c1ccc(O[C@@H]2CCN(c3ncnc(OCCCF)c3F)C2)cc1 [Example 7.31]
145 nM | CC(=O)N[C@@H](C)c1ccc(O[C@@H]2CCN(c3ncnc(OCC(C)(C)O)c3F)C2)cc1 [Example 7.32]
86 nM | CC(=O)N[C@@H](C)c1ccc(O[C@@H]2CCN(c3ncnc(OCC(C)(F)F)c3F)C2)cc1 [Example 7.33]
63 nM | CC(=O)N[C@@H](C)c1ccc(O[C@@H]2CCN(c3ncnc(OCC4CC4(F)F)c3F)C2)cc1 (some centres unmarked) [Example 7.34]
